Assays:
[1] = target: T1, Aurora kinase A (Homo sapiens) (UniProt O14965); assay: (§1) Aurora-A(h) Eurofins kinase panel; conditions: Compound concentration 1.0 uM
T1 sequence (whole entry): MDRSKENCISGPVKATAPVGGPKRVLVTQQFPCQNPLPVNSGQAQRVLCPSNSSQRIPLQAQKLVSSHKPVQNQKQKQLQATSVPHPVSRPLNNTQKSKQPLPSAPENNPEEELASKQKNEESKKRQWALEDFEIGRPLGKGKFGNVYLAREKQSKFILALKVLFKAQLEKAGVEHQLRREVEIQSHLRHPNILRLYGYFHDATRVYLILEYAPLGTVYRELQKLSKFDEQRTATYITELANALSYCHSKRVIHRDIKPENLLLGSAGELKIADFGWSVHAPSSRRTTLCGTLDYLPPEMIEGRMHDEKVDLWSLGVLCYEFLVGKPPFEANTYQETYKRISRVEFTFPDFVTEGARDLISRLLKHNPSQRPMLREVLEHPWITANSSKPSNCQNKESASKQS

Aurora kinase A = Aurora kinase A (Homo sapiens, UniProt O14965); assay: as §1
[2] = target: Calcium/calmodulin-dependent protein kinase type II subunit alpha (Homo sapiens) (UniProt Q9UQM7); assay: CaMKIIalpha(h) Eurofins kinase panel; conditions: Compound concentration 1.0 uM
Chain of Calcium/calmodulin-dependent protein kinase type II subunit alpha (Homo sapiens) (Q9UQM7 whole entry): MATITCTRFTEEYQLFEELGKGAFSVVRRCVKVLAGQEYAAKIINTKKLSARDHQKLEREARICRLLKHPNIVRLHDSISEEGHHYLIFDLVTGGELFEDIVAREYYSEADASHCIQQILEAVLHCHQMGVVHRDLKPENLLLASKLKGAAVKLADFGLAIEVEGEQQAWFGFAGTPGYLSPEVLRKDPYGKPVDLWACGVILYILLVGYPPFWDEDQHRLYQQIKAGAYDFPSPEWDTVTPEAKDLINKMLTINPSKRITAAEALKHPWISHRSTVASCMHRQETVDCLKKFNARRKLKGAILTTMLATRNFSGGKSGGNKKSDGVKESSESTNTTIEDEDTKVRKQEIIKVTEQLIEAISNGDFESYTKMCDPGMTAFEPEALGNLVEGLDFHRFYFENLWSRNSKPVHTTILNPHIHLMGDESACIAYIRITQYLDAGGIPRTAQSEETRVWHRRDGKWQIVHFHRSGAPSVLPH

[3] = target: Calcium/calmodulin-dependent protein kinase kinase 1 (Homo sapiens) (UniProt Q8N5S9); assay: CaMKK1(h) Eurofins kinase panel; conditions: Compound concentration 1.0 uM
Chain of Calcium/calmodulin-dependent protein kinase kinase 1 (Homo sapiens) (Q8N5S9 whole entry, looked up): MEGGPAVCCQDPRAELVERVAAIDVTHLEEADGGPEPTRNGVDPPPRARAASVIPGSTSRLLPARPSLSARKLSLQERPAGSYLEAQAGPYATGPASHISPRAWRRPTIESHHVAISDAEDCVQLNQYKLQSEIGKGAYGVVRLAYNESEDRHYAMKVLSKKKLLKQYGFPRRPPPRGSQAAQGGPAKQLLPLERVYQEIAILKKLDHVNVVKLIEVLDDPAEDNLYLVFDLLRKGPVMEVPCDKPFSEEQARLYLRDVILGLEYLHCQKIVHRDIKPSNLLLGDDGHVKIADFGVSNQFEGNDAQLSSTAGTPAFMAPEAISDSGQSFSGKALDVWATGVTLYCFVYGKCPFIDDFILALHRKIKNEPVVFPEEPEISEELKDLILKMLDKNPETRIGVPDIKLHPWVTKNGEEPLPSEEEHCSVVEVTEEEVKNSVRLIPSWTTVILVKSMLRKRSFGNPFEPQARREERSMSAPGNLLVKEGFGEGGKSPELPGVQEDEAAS

[4] = target: CDK9/cyclin T1 (Homo sapiens) (UniProt O60563+P50750); assay: CDK9/cyclin T1(h) Eurofins kinase panel; assay type: protein-complex assay; conditions: Compound concentration 1.0 uM
[5] = target: T2, Serine/threonine-protein kinase Chk1 (Homo sapiens) (UniProt O14757); assay: CHK1(h) Eurofins kinase panel; conditions: Compound concentration 1.0 uM
T2 sequence (whole entry): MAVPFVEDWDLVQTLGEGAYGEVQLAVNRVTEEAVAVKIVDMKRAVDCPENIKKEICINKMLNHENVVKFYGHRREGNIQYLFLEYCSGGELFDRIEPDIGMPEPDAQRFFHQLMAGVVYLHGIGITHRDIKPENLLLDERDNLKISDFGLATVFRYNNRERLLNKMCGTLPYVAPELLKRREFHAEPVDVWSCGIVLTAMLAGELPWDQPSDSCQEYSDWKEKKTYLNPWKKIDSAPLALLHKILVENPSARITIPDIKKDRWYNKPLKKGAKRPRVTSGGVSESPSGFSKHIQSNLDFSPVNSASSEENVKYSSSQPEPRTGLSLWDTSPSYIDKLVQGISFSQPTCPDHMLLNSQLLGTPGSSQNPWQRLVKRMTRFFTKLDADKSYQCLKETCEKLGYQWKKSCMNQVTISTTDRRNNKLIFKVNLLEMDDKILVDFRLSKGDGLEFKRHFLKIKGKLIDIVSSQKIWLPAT

[6] = target: T3, Ephrin type-A receptor 1 (Homo sapiens) (UniProt P21709); assay: EphA1(h) Eurofins kinase panel; conditions: Compound concentration 1.0 uM
T3 sequence (whole entry): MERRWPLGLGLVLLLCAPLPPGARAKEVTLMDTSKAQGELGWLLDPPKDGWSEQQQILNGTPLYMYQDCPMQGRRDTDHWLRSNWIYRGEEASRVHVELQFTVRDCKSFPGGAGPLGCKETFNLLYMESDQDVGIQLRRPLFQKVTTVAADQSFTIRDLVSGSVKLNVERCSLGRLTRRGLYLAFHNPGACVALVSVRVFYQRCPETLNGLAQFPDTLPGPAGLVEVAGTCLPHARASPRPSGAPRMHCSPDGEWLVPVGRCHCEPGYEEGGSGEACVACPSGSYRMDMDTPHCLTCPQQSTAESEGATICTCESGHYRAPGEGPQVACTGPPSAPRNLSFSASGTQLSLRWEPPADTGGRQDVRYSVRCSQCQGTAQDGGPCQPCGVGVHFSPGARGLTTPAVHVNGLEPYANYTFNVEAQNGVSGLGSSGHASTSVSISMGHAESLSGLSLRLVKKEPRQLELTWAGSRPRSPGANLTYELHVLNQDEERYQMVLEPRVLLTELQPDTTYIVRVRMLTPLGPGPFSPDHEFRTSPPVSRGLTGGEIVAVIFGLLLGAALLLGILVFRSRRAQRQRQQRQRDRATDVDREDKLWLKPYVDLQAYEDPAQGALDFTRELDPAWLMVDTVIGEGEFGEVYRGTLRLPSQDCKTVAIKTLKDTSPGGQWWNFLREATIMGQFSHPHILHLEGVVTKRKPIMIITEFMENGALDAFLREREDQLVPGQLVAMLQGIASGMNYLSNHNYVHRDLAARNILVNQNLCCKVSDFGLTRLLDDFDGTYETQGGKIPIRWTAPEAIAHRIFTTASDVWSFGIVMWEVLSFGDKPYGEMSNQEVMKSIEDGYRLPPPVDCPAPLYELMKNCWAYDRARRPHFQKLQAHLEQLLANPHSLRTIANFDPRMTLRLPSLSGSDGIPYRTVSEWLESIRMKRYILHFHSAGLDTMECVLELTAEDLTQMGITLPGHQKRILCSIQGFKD

[7] = target: Ephrin type-A receptor 4 (Homo sapiens) (UniProt P54764); assay: EphA4(h) Eurofins kinase panel; conditions: Compound concentration 1.0 uM
Chain of Ephrin type-A receptor 4 (Homo sapiens) (P54764 whole entry): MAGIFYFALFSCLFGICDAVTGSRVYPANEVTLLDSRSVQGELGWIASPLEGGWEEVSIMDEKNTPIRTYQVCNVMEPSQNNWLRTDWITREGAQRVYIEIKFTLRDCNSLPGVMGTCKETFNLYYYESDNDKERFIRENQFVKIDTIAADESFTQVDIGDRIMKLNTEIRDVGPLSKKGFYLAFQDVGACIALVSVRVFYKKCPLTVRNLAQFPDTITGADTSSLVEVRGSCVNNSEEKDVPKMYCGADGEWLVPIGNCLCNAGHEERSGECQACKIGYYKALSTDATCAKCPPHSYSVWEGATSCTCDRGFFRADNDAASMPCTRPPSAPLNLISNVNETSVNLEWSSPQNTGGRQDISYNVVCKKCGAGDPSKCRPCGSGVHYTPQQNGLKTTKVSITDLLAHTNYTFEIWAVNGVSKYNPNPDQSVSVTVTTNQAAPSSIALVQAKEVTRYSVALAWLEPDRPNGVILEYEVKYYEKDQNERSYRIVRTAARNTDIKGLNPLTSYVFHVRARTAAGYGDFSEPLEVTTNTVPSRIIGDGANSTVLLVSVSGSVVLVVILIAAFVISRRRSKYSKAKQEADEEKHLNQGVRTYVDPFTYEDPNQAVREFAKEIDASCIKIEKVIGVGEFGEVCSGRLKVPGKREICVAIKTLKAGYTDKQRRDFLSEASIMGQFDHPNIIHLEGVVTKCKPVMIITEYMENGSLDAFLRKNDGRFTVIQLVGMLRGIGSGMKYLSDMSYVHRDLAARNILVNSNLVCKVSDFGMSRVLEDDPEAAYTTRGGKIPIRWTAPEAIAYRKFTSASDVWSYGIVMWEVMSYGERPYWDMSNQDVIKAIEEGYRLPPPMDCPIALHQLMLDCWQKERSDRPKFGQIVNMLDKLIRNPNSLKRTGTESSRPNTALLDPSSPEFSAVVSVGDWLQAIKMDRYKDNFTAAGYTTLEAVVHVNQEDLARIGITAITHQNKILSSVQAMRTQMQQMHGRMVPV

[8] = target: Vascular endothelial growth factor receptor 1 (Homo sapiens) (UniProt P17948); assay: Flt1(h) Eurofins kinase panel; conditions: Compound concentration 1.0 uM
[9] = target: Serine/threonine-protein kinase 10 (Homo sapiens) (UniProt O94804); assay: LOK(h) Eurofins kinase panel; conditions: Compound concentration 1.0 uM
Chain of Serine/threonine-protein kinase 10 (Homo sapiens) (O94804 whole entry, looked up): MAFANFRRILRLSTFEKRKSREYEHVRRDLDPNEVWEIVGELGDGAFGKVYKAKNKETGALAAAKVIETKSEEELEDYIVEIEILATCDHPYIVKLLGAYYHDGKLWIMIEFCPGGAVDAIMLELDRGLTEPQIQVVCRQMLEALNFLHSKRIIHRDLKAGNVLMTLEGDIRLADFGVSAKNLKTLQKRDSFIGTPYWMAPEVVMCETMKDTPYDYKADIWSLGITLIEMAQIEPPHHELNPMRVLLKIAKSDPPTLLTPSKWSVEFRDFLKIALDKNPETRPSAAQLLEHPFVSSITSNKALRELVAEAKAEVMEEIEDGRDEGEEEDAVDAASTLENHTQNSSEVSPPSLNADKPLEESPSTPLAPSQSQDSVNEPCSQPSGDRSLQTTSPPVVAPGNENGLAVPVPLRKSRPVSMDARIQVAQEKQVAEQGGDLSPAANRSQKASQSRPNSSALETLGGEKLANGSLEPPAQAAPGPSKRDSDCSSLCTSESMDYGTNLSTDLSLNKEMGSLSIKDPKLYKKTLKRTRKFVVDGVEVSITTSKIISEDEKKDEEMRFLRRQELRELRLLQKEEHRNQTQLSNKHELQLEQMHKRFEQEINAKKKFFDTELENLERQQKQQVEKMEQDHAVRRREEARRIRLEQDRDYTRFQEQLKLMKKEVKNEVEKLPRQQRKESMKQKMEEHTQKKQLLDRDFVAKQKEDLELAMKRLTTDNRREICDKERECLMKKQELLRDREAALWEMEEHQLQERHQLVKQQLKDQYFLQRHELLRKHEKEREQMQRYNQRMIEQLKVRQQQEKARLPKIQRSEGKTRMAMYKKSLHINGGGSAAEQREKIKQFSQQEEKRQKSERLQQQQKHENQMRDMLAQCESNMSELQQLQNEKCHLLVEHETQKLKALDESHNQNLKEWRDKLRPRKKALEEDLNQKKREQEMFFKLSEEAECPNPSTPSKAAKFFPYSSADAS

[10] = target: T4, Serine/threonine-protein kinase MAK (Homo sapiens) (UniProt P20794); assay: MAK(h) Eurofins kinase panel; conditions: Compound concentration 1.0 uM
T4 sequence (whole entry): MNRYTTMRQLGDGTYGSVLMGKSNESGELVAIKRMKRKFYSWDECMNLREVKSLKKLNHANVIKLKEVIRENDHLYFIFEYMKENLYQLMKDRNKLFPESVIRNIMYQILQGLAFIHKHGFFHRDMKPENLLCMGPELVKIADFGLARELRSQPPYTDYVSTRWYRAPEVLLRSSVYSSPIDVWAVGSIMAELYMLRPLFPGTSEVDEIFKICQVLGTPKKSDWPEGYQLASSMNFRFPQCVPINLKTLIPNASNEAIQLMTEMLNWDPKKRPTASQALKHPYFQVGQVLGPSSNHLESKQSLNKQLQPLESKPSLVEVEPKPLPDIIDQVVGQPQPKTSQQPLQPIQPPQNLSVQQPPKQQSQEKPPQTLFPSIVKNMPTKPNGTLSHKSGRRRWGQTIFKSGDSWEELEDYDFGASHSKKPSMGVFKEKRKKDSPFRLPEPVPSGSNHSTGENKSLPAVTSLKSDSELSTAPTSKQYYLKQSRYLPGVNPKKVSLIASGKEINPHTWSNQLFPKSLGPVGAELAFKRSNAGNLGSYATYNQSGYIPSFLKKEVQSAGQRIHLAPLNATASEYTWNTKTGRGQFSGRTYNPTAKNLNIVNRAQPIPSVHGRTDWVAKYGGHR

[11] = target: Eukaryotic translation initiation factor 2-alpha kinase 3 (Homo sapiens) (UniProt Q9NZJ5); assay: PEK(h) Eurofins kinase panel; conditions: Compound concentration 1.0 uM
Chain of Eukaryotic translation initiation factor 2-alpha kinase 3 (Homo sapiens) (Q9NZJ5 whole entry): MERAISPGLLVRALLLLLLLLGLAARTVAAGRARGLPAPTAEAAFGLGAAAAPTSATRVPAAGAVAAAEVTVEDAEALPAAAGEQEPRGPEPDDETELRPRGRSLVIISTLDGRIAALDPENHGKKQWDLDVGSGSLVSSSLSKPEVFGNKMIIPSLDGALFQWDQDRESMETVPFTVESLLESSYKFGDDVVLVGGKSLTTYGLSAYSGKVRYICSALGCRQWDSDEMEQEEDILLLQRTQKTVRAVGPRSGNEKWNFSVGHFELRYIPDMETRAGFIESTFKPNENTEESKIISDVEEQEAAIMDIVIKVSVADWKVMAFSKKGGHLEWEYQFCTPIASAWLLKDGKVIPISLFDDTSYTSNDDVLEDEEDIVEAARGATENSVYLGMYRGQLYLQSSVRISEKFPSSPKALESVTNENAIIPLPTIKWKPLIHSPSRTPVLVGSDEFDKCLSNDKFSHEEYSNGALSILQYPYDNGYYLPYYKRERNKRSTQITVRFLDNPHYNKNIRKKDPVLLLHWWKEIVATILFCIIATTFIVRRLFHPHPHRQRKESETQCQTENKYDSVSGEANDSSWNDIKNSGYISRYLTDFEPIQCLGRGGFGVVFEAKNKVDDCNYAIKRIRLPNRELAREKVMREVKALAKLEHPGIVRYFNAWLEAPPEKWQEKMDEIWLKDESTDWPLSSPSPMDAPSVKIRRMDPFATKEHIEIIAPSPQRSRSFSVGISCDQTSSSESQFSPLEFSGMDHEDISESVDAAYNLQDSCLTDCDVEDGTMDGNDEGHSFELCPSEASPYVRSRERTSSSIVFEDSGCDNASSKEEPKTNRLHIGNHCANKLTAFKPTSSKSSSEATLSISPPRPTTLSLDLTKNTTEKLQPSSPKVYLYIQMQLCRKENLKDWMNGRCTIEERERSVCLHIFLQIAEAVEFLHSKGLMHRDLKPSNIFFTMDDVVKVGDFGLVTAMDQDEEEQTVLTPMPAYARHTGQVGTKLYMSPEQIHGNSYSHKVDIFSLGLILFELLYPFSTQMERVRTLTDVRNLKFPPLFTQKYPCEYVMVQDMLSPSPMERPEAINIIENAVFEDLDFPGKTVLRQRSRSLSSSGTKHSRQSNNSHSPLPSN

[12] = target: Serine/threonine-protein kinase pim-2 (Homo sapiens) (UniProt Q9P1W9); assay: Pim-2(h) Eurofins kinase panel; conditions: Compound concentration 1.0 uM
Chain of Serine/threonine-protein kinase pim-2 (Homo sapiens) (Q9P1W9 whole entry, looked up): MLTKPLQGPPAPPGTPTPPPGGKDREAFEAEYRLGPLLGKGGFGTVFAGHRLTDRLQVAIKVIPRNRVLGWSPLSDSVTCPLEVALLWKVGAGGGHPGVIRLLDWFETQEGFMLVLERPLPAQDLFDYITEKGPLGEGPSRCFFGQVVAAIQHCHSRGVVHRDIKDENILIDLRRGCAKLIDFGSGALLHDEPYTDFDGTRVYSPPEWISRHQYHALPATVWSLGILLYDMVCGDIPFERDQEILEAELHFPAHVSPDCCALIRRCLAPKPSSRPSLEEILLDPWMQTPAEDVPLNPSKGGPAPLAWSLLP

OPM-2 = assay: OPM-2 cell line Proliferation assay; assay type: functional, Homo sapiens; conditions: time 3 day

SMILES: CCc1ccccc1C(=O)Nc1n[nH]c2c(C)c(F)c(C3C(C#N)=C(C)N(C)C(C)=C3C#N)cc12 [BAY-3827]
- % residual kinase activity [1]: 34%
- IC50 (Aurora kinase A): 0.48 µM
- % residual kinase activity [2]: 81%
- % residual kinase activity [3]: 95%
- % residual kinase activity [4]: 91%
- % residual kinase activity [5]: 112%
- % residual kinase activity [6]: 98%
- % residual kinase activity [7]: 106%
- % residual kinase activity [8]: 96%
- % residual kinase activity [9]: 88%
- % residual kinase activity [10]: 95%
- % residual kinase activity [11]: 101%
- % residual kinase activity [12]: 102%
- Cell Proliferation IC50 (OPM-2): 1.5 µM

From ChEMBL document CHEMBL4507319 (2021)
